Data as given in patent publication US20100297123A1, “COMBINATION THERAPY TO INHIBIT T CELL EFFECTOR FUNCTION” (priority 2009, published 2010).

What was measured:
effector CD4 T cells = assay: CFSE proliferation assay of mouse effector CD4 T cells; assay type: cell-based; conditions: effector CD4 T cells stimulated with anti-CD3/28 and drug(s), FIG. 12B
Protocol: Proliferation and cell division assays. Cells cultured in 96-well U-bottom plate wells were pulsed with 1 μCi of methyl-[^3H]thymidine (Amersham Biosciences) for 6 h during the last 72 h of stimulation and harvested onto filters (Wallac). Filters were wetted with Betaplate Scintillation fluid (PerkinElmer) and counts per minute read on a 1205 Betaplate Liquid Scintillation Counter (Wallac). For CFSE experiments, cells were labeled with 1 μM CFDA-SE (Sigma-Aldrich) in serum free RPMI 1640 medium for 10 min and washed twice before culturing. CFSE-labeled cells were assayed after 72 h of culture.
GRAIL is expressed during quiescence, lost upon activation. Naïve CD4 T cells were isolated from mouse and stimulated with anti-CD3 and anti-CD28 antibodies in vitro for the indicated number of hours (FIG. 10). Protein was collected and run by Western blot probing for GRAIL and β-actin. Effector CD4 T cells were made by first isolating from naïve mice, then stimulating with anti-CD3/28 for 3 days, split off and rested for 2 more days, then washed and put in fresh media for 2 additional days. Live CD4 T cells were then collected, shown to be at rest, and then activated in the same manner as described above. Protein samples were isolated and probed with anti-GRAII antibody as described in Example 1.
Shown in FIG. 12A, naïve CD4 T cells were labeled with CFSE, a dye that dilutes out with successive cell divisions. The naïve CD4 T cells were stimulated with anti-CD3/28 and the indicated drug(s) and CFSE profiles assessed after 3 days. […] A similar experiment was performed with effector CD4 T cells, prepared as described above.

mouse naive CD4 T cells = assay: CFSE cell division assay of mouse naive CD4 T cells; assay type: cell-based; conditions: anti-CD3/28 stimulation, CFSE profiles after 3 days
Excerpt: Isolation and stimulation of mouse CD4 T cells. Spleen and lymph nodes were harvested from naive mice and homogenized through a strainer. RBC were lysed from the suspension using red blood cell lysing buffer (Sigma-Aldrich). Lymphocytes were isolated by density centrifugation using Lympholyte-M (Cedarlane Laboratories). CD4+ T cells were sorted via negative selection using an AutoMACS sorter (Miltenyi Biotec). BALB/c CD4+ T cells (5×103) were stimulated in 96-well U-bottom plates with equal numbers of polystyrene latex beads (Interfacial Dynamics) coated with 1.0 μg/ml anti-CD3 (145-2C11; eBioscience) and 0.5 μg/ml anti-CD28 (37.51; eBioscience). […] Anti-IL-2 Ab (JES6-1A12; eBioscience) was used at a concentration of 10 μg/ml. Cells were cultured in RPMI 1640 medium (Life Technologies) supplemented with 10% heat-inactivated FCS (Mediatech), 100 nM sodium pyruvate (Life Technologies), 2 mM L-glutamine (Life Technologies), 100 nM nonessential amino acids (Life Technologies), 100 U/ml penicillin/streptomycin (Life Technologies), and 5 nM 2-ME (Sigma-Aldrich). […]

GRAIL = GRAIL western blot of effector CD4 T cells; assay type: cell-based, mouse; conditions: effector CD4 T cells stimulated with anti-CD3/28, western blot, FIG. 12C
Protocol: Immunoblots. Whole-cell lysates were made using lysis buffer consisting of 0.5% Nonidet P-40, 100 mM sodium chloride, 0.5 mM EDTA, 20 mM Tris (pH 7.6-8.0), with protease inhibitor mixture (Pierce) and phosphatase inhibitor mixture (Pierce). Protein samples were loaded on 4-15% Tris-HCl gels (Bio-Rad) and separated by SDS-PAGE. Protein was transferred from gel to Immobolin-P polyvinylidene difluoride membrane (Millipore) using Trans-Blot SD Semidry Transfer Apparatus (Bio-Rad) following the manufacturer's instructions. StartingBlock (Tris-buffered saline with 0.05% Tween 20) (Pierce) was used to block membranes and was also used during primary and secondary Ab staining. Secondary Abs were all HRP conjugated (Zymed Laboratories). ECL Plus Western Blotting Reagents (GE Healthcare) were used for chemiluminescent detection of protein. Chemiluminescence signal was exposed onto Amersham Hyperfilm ECL (GE Healthcare). Membranes were stripped using Restore Western Blot Stripping Buffer (Pierce). Densitometry was performed using ImageJ software (National Institutes of Health). […]

O=C(NOCC(O)CO)c1ccc(F)c(F)c1Nc1ccc(I)cc1F (centres unmarked) [PD0325901, N-(2,3-dihydroxypropoxy)-3,4-difluoro-2-(2-fluoro-4-iodophenylamino)benzamide]
proliferation of effector CD4 T cells (CFSE) (effector CD4 T cells): does not work alone

CC(=O)O[C@@H]1[C@@H](OC(C)=O)[C@@H](O)[C@H](Oc2c(-c3ccc(O)cc3)oc3cc(O)cc(O)c3c2=O)O[C@H]1C [SL0101]
proliferation of effector CD4 T cells (CFSE) (effector CD4 T cells): does not work alone

N#CC(=C(/N)Sc1ccccc1N)/C(C#N)=C(\N)Sc1ccccc1N [U0126]
cell division / proliferation by CFSE dilution (mouse naive CD4 T cells): inhibits proliferation | proliferation of effector CD4 T cells (CFSE) (effector CD4 T cells): does not inhibit proliferation | GRAIL retention in effector CD4 T cells (GRAIL): does not lead to GRAIL retention
